From patent US12065416B2, “cGAS antagonist compounds” (IMMUNESENSOR THERAPEUTICS, INC., priority 2016, dated 2024) come the findings set out here.

The target in the test is T1, recombinant cGAS (aa147-522) (Homo sapiens, UniProt Q8N884).
T1 construct: recombinant cGAS (aa147-522); His6-SUMO (N, cleaved yes); made in house; host or cells: E. coli BL21/pLys
Kind of test: In vitro assay for inhibition of cGAS activity (ATP consumption, Kinase Glo). It counts as biochemical. Conditions: 37° C. 20 minutes, read-out: Activity (Inhibition of cGAS enzyme activity in vitro, IC50). The method, then:
cDNA encoding full-length or amino acids 147-520 of human cGAS is inserted into a modified pET28a vector containing an in-frame His6-SUMO tag. The E. coli strain BL21/pLys harboring the plasmid is induced with 0.5 mM IPTG at 18° C. overnight. His6-SUMO tag was removed by a SUMO proease following purification of the HiS-SUMO-cGAS as described previously (Sun et al, 2013, Science 339, 786).
A40 μL mixture containing 1.5 ng/μL of recombinant cGAS (aa147-522) and serial dilutions of a test compound or DMSO was added to a 96-well plate and incubated at 37° C. for 20 minutes. At the end of reaction, 20 μL of Kinase Glo (Promega) was added and chemiluminescence measured with a luminometer. Inhibitory effect of a compound is evaluated by plotting percentage of ATP consumption against logarithm of compound concentrations. IC50 value was calculated using Graphpad (Sigma).

T1 sequence (Q8N884 147-522): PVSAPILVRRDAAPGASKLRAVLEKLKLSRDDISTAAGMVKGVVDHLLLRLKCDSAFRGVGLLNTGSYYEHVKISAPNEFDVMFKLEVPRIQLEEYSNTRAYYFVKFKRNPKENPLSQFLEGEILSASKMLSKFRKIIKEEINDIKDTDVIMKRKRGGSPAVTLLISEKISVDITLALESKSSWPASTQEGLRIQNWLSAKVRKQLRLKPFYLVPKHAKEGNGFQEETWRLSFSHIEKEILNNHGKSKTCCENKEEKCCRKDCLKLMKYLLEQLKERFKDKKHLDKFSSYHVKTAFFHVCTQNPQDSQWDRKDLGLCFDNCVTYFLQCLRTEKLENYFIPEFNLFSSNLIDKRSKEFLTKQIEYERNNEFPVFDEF

In general, IC50 refers to the point on the concentration scale where inhibition reaches its midpoint. For `CSc1ncc(COc2cc(/C=C3\SC(=O)N(C)C3=O)c(Br)cc2O)c(Cl)n1` [Ex98], the IC50 lay within 500 to 10000 nM.
In the case of `COc1nc(SC)ncc1COc1cc(/C=C2\SC(=O)N(C)C2=O)c(Br)cc1O` [Ex99] it was 500 to 10000 nM; in that of `CSc1ncc(COc2cc(/C=C3\SC(=O)N(C)C3=O)c(Br)cc2O)c(SC)n1` [Ex100], not below 10000 nM; in that of `CN1C(=O)S/C(=C\c2cc(Oc3ccnc(N)c3)c(O)cc2Br)C1=O` [Ex101], 500 to 10000 nM.
Next, `CN1C(=O)S/C(=C\c2cc(Oc3ccc([N+](=O)[O-])nc3)c(O)cc2Br)C1=O` [Ex102]: 500 to 10000 nM; `CC(Oc1cc(/C=C2\SC(=O)N(C)C2=O)c(Br)cc1O)c1cncnc1` (stereo not shown) [Ex103]: 500 to 10000 nM; `CC(Oc1cc(/C=C2\SC(=O)N(C)C2=O)c(Br)cc1O)c1cnc(Cl)nc1` (stereo not shown) [Ex104]: 500 to 10000 nM.
In the case of `CNc1ncc(C(C)Oc2cc(/C=C3\SC(=O)N(C)C3=O)c(Br)cc2O)cn1` (stereo not shown) [Ex105] it was 500 to 10000 nM; in that of `CN1C(=O)S/C(=C\c2cc(OCc3cnc(N)nc3C3CC3)c(O)c(F)c2Br)C1=O` [Ex109], 500 to 10000 nM.
Turning to `CNc1ncc(C(C)Oc2cc(/C=C3\SC(=O)N(C)C3=O)c(Br)c(F)c2O)cn1` (stereo not shown) [Ex111], the IC50 was 500 to 10000 nM.
Consider `Nc1ncc(COc2cc(/C=C3\Sc4ncccc4C3=O)c(Br)cc2O)c(C(F)(F)F)n1` [Ex118], for which the IC50 is not above 500 nM.
Next, `CC(Oc1cc(/C=C2\Sc3ncccc3C2=O)c(Br)cc1O)c1cccnc1` (stereo not shown) [Ex119]: 500 to 10000 nM; `Cc1ncc(COc2cc(/C=C3\Sc4ncccc4C3=O)c(Br)cc2O)c(C)n1` [Ex120]: not above 500 nM; `CC(Oc1cc(/C=C2\Sc3ncccc3C2=O)c(Br)cc1O)c1cnc(Cl)nc1` (stereo not shown) [Ex121]: not above 500 nM.
In the case of `CN1C(=O)S/C(=C\c2cc(OCc3ccc(=O)[nH]c3)c(O)cc2Br)C1=O` [Ex125] it was 500 to 10000 nM; in that of `CN1CCC(COc2cc(/C=C3\SC(=O)N(C)C3=O)c(Br)cc2O)CC1` [Ex126], 500 to 10000 nM.
With `CN1C(=O)S/C(=C\c2cc(OCC3CCN(C(=O)c4ccccc4)CC3)c(O)cc2Br)C1=O` [Ex127], the IC50 was in the range of 500 to 10000 nM.
`CN1C(=O)S/C(=C\c2cc(OCC3CCN(C(=O)c4ccccn4)CC3)c(O)cc2Br)C1=O` [Ex128]: the 50% inhibitory concentration (IC50) fell in the range of 500 to 10000 nM.
In the case of `CN1C(=O)S/C(=C\c2cc(OCC3CCN(C(=O)c4cccnc4)CC3)c(O)cc2Br)C1=O` [Ex129] it was 500 to 10000 nM; in that of `CN1C(=O)S/C(=C\c2cc(OCc3cncc(N)c3)c(O)cc2Br)C1=O` [Ex132], 500 to 10000 nM; in that of `CN1C(=O)S/C(=C\c2cc(OCc3ccnc(N)c3)c(O)cc2Br)C1=O` [Ex133], 500 to 10000 nM.
Next, `CN1C(=O)S/C(=C\c2cc(OCc3cc[nH]c(=O)c3)c(O)cc2Br)C1=O` [Ex134]: 500 to 10000 nM; `CN1C(=O)S/C(=C\c2cc(OCc3ccn(-c4ccccc4)c(=O)c3)c(O)cc2Br)C1=O` [Ex136]: 500 to 10000 nM; `CN1C(=O)S/C(=C\c2cc(OCc3ccnc(N)n3)c(O)cc2Br)C1=O` [Ex138]: 500 to 10000 nM.
Next, `Cc1ncc(COc2cc(/C=C3\SC(=O)N(C)C3=O)c(Br)cc2O)cn1` [Ex142]: not above 500 nM.
Take `COc1ncc(COc2cc(/C=C3\SC(=O)N(C)C3=O)c(Br)cc2O)cn1` [Ex143]: the IC50 lay in the range of 500 to 10000 nM.
Next, `CSc1ncc(COc2cc(/C=C3\SC(=O)N(C)C3=O)c(Br)cc2O)cn1` [Ex144]: 500 to 10000 nM; `CN1C(=O)S/C(=C\c2cc(OCc3cnc(-c4ccccc4)nc3)c(O)cc2Br)C1=O` [Ex145]: 500 to 10000 nM; `CN1C(=O)S/C(=C\c2cc(OCc3cnc(-c4ccncc4)nc3)c(O)cc2Br)C1=O` [Ex146]: not above 500 nM.
Next, `CC(C)Nc1ncc(COc2cc(/C=C3\SC(=O)N(C)C3=O)c(Br)cc2O)cn1` [Ex150]: 500 to 10000 nM.
Regarding `CC(C)CNc1ncc(COc2cc(/C=C3\SC(=O)N(C)C3=O)c(Br)cc2O)cn1` [Ex151], the IC50 was 500 to 10000 nM.
With `CN1C(=O)S/C(=C\c2cc(OCc3cnc(NCc4ccccc4)nc3)c(O)cc2Br)C1=O` [Ex154], the 50% inhibitory concentration (IC50) fell in the range of 500 to 10000 nM.
In the case of `CN1C(=O)S/C(=C\c2cc(OCc3cnc(Nc4ccccc4)nc3)c(O)cc2Br)C1=O` [Ex158] it was 500 to 10000 nM; in that of `CN1C(=O)S/C(=C\c2cc(OCc3cnc(Nc4cccnc4)nc3)c(O)cc2Br)C1=O` [Ex159], 500 to 10000 nM; in that of `CN1C(=O)S/C(=C\c2cc(OCc3cnc(Nc4ccncc4)nc3)c(O)cc2Br)C1=O` [Ex160], not above 500 nM.
Turning to `CN1C(=O)S/C(=C\c2cc(OCc3cnc(NC(=O)c4ccncc4)nc3)c(O)cc2Br)C1=O` [Ex161], the IC50 is not above 500 nM.
In the case of `CN1C(=O)S/C(=C\c2cc(OCc3cnc(N(C)C)nc3)c(O)cc2Br)C1=O` [Ex162] it was not below 10000 nM; in that of `CN1C(=O)S/C(=C\c2cc(OCc3cnc(N4CCCC4)nc3)c(O)cc2Br)C1=O` [Ex163], not below 10000 nM.
Next, `CN1C(=O)S/C(=C\c2cc(OCc3cnc(N4CCCCC4)nc3)c(O)cc2Br)C1=O` [Ex164]: not below 10000 nM.
In the case of `CN1C(=O)S/C(=C\c2cc(OCc3cnc(N4CCOCC4)nc3)c(O)cc2Br)C1=O` [Ex166] it was not below 10000 nM; in that of `CN1CCN(c2ncc(COc3cc(/C=C4\SC(=O)N(C)C4=O)c(Br)cc3O)cn2)CC1` [Ex167], 500 to 10000 nM.
For the compound `CN1C(=O)S/C(=C\c2cc(OCc3cnc(-n4ccnc4)nc3)c(O)cc2Br)C1=O` [Ex168], the IC50 is 500 to 10000 nM.
Next, `CN1C(=O)S/C(=C\c2cc(OCc3cnc(-n4cccn4)nc3)c(O)cc2Br)C1=O` [Ex169]: 500 to 10000 nM; `CN1C(=O)S/C(=C\c2cc(OCc3cnc(N)nc3C(F)(F)F)c(O)cc2Br)C1=O` [Ex172]: not above 500 nM; `CN1C(=O)S/C(=C\c2cc(OCc3cccc4cnccc34)c(O)cc2Br)C1=O` [Ex173]: 500 to 10000 nM.
Turning to `CN1C(=O)S/C(=C\c2cc(OCc3ccc4ncccc4c3)c(O)cc2Br)C1=O` [Ex174], the IC50 is not below 10000 nM.
In the case of `CN1C(=O)S/C(=C\c2cc(OCc3ccc4cccnc4c3)c(O)cc2Br)C1=O` [Ex175] it was 500 to 10000 nM; in that of `CN1C(=O)S/C(=C\c2cc(OCc3cncc4ccccc34)c(O)cc2Br)C1=O` [Ex176], 500 to 10000 nM.
With `CN1C(=O)S/C(=C\c2cc(OCc3ccnc4ccccc34)c(O)cc2Br)C1=O` [Ex178], the IC50 fell in the range of 500 to 10000 nM.
Consider `CN1C(=O)S/C(=C\c2cc(OCCc3ccncc3)c(O)cc2Br)C1=O` [Ex179], for which the IC50 lay within 500 to 10000 nM.
As for `Cc1ncc(C(C)Oc2cc(/C=C3\SC(=O)N(C)C3=O)c(Br)cc2O)cn1` (stereo not shown) [Ex180], the IC50 is 500 to 10000 nM.
In the case of `CC(Oc1cc(/C=C2\SC(=O)N(C)C2=O)c(Br)cc1O)c1cnc(NCCO)nc1` (stereo not shown) [Ex181] it was 500 to 10000 nM.
Next, `COCCNc1ncc(C(C)Oc2cc(/C=C3\SC(=O)N(C)C3=O)c(Br)cc2O)cn1` (stereo not shown) [Ex182]: 500 to 10000 nM; `Cc1nc(N)ncc1C(C)Oc1cc(/C=C2\SC(=O)N(C)C2=O)c(Br)cc1O` (stereo not shown) [Ex183]: 500 to 10000 nM; `Cc1ncc(COc2cc(/C=C3\SC(=O)N(C)C3=O)c(Br)cc2O)cn1` [Ex186]: 500 to 10000 nM.
Next, `CNc1ncc(COc2cc(/C=C3\SC(=O)N(C)C3=O)c(Br)c(F)c2O)cn1` [Ex187]: not above 500 nM; `CN1C(=O)S/C(=C\c2cc(OCc3cnc(NCc4ccccn4)nc3)c(O)c(F)c2Br)C1=O` [Ex188]: 500 to 10000 nM; `CN1C(=O)S/C(=C\c2cc(OCc3cnc(NCc4ccncc4)nc3)c(O)c(F)c2Br)C1=O` [Ex190]: not above 500 nM.
In the case of `CN1C(=O)S/C(=C\c2cc(OCc3cnc(NC(=O)c4ccncc4)nc3)c(O)c(F)c2Br)C1=O` [Ex191], the IC50 is not above 500 nM.
In the case of `CC(Oc1cc(/C=C2\SC(=O)N(C)C2=O)c(Br)c(F)c1O)c1cncnc1` (stereo not shown) [Ex192] it was 500 to 10000 nM; in that of `O=C1/C(=C/c2cc(OCc3cnc(NCc4ccccn4)nc3)c(O)cc2Br)Sc2ncccc21` [Ex198], not above 500 nM.
Regarding `O=C1/C(=C/c2cc(OCc3cnc(NCc4cccnc4)nc3)c(O)cc2Br)Sc2ncccc21` [Ex199], the IC50 was not above 500 nM.
Next, `COc1cc(/C=C2\SC(=O)N(C)C2=O)c(Br)cc1Oc1nncs1` [Ex201]: 500 to 10000 nM; `COc1cc(/C=C2\SC(=O)N(C)C2=O)c(Br)cc1Oc1ccncc1` [Ex202]: 500 to 10000 nM.
In the case of `COc1cc(/C=C2\SC(=O)N(C)C2=O)c(Br)cc1OCc1ccncc1` [Ex203] it was 500 to 10000 nM.
Next, `COc1cc(/C=C2\SC(=O)N(C)C2=O)c(Br)cc1Oc1ccnc2ccccc12` [Ex204]: 500 to 10000 nM.
`COc1cc(/C=C2\SC(=O)N(C)C2=O)c(C#N)cc1O` [Ex205]: the IC50 lay in the range of 500 to 10000 nM.
Consider `COc1cc(/C=C2\SC(=O)N(C)C2=O)c(Br)cc1Oc1cnc(NCc2ccncc2)s1` [Ex206], for which the IC50 fell in the range of 500 to 10000 nM.
On to `COc1cc(/C=C2\SC(=O)N(C)C2=O)c(Br)cc1Oc1cnc(NCc2cccnc2)s1` [Ex207], for which the concentration for half-maximal inhibition (IC50) is 500 to 10000 nM.
Next, `CN1C(=O)S/C(=C\c2cc3c(Cc4cnc(N)nc4)c[nH]c3cc2Br)C1=O` [Ex208]: 500 to 10000 nM; `CN1CCC(c2ncc(COc3cc(/C=C4\SC(=O)N(C)C4=O)c(Br)cc3O)cn2)CC1` [Ex209]: 500 to 10000 nM; `CN1C(=O)S/C(=C\c2cc(C(C)(F)F)c(O)cc2Br)C1=O` [Ex210]: 500 to 10000 nM.
In the case of `COc1nc([S+](C)[O-])ncc1COc1cc(/C=C2\SC(=O)N(C)C2=O)c(Br)cc1O` (stereo not shown) [Ex212] it was 500 to 10000 nM.
